Experimental data taken from US5164390A, “6-substituted purinyl piperazine derivatives” (Ortho Pharmaceutical Corporation, priority 1991, dated 1992).
Where two headings read alike, the source gives them in different places.

Tested on: Adult mongrel dogs
Test: Cardiotonic activity: hemodynamic and inotropic responses (MAP, HR, dP/dt, contractile force) in anesthetized dogs, iv infusion
Format: in vivo, mongrel dog
Details: Canis lupus familiaris; for ED50: dose producing a 50% increase above baseline in myocardial contractile force, iv, read-out: contractile force (CF) ED50
Description: Adult mongrel dogs were anesthetized with sodium pentobarbital (45 mg/kg, i.p.) and artificially respired. Mean arterial pressure (MAP) was recorded from a cannulated femoral artery and drugs were infused into a cannulated femoral vein. The arterial pressure pulse was used to trigger a cardiotachometer for determination of heart rate (HR). Left ventricular pressure was measured with a Millar catheter and dP/dtmax was derived. A right thoracotomy was performed and myocardial contractile force (CF) was measured with a Walton Brodie strain gauge sutured to the right ventricle. The ventricular muscle was stretched to produce a baseline tension of 100 g. A standard dose of dopamine (10-15 ug/kg/min for 3 min) was administered to determine myocardial responsiveness to inotropic stimulation.
Test compounds were solubilized in a small volume of DMF diluted to a final concentration of 10% in physiological saline. Alternatively, where possible, a soluble hydrochloride salt was prepared by addition of 0.1N HCl diluted in physiological saline. Vehicles were tested in appropriate volumes and found to exert less than a 5% effect on contractile force. For iv studies, compounds were administered by infusion pump (one drug per animal) at rates of 0.58-2.2 mL/min in three to four stepwise increasing doses. Each dose was infused over 5 min immediately after the effect of the previous dose peaked. MAP, HR, dP/dtmax and CF responses were continuously monitored on a Beckman or Gould recorder and expressed as a percent change from pre-drug control values vs. the cumulative dose of drug administered. For these studies, n represents the number of test animals used.
Quantitation of the inotropic potency was obtained by calculation of the contractile force (CF) ED50. This was defined as the dose of compound that produced a 50% increase above baseline in myocardial contractile force. The value was obtained from three to four point dose-response curves using either graphical estimation (n<3) or linear regression analysis (n≥3). Numbers in parentheses are number of animals screened.

[1] = Table 1, 1.875 mg/kg iv, cumulative dose, read-out: CF (myocardial contractile force), % from Control
[2] = Table 1, 1.875 mg/kg iv, cumulative dose, read-out: HR (heart rate), % from Control
[3] = Table 1, 1.875 mg/kg iv, cumulative dose, read-out: MAP (mean arterial pressure), % from Control
[4] = Table 1, 1.875 mg/kg iv, cumulative dose, read-out: dPdt (left ventricular dP/dtmax), % from Control
[5] = range in parentheses on next line
[6] = Table 2, 1.875 mpk iv, read-out: CF (myocardial contractile force), percent change from pre-drug control
[7] = Table 2, 1.875 mpk iv, read-out: HR (heart rate), percent change from pre-drug control
[8] = Table 2, 1.875 mpk iv, read-out: MAP (mean arterial pressure), percent change from pre-drug control
[9] = Table 2, 1.875 mpk iv, read-out: dP/dt (left ventricular dP/dtmax), percent change from pre-drug control

OC(CSc1ncnc2[nH]cnc12)CN1CCN(C(c2ccc(F)cc2)c2ccc(F)cc2)CC1 (stereo not shown) [Example 1, 6-[1-[1-[Bis(4-fluorophenyl)methyl]piperazine-4-yl]-2-hydroxy-3-propanylthio]purine Hemihydrate]
change in vivo at 1.875 mg/kg [1]: 214% | change in vivo at 1.875 mg/kg [2]: 1% | change in vivo at 1.875 mg/kg [3]: -5% | change in vivo at 1.875 mg/kg [4]: 127% | ED50 [5]: 0.16 mg/kg

O[C@H](CSc1ncnc2nc[nH]c12)CN1CCN(C(c2ccc(F)cc2)c2ccc(F)cc2)CC1 [Example 2, (2S)-(+)-6-[1-[1-[Bis(4-fluorophenyl)methyl]piperazin-4-yl]-2-hydroxy-3-propanylthio]purine]
change in vivo at 1.875 mg/kg [1]: 212% | change in vivo at 1.875 mg/kg [2]: -6% | change in vivo at 1.875 mg/kg [3]: -13% | change in vivo at 1.875 mg/kg [4]: 168% | ED50 [5]: 0.07 mg/kg

O[C@@H](CSc1ncnc2nc[nH]c12)CN1CCN(C(c2ccc(F)cc2)c2ccc(F)cc2)CC1 [Example 3, (2R)-(-)-6-[1-[1-[Bis(4-fluorophenyl)methyl]piperazin-4-yl]-2-hydroxy-3-propanylthio]purine]
change in vivo at 1.875 mg/kg [1]: 151% | change in vivo at 1.875 mg/kg [2]: -8% | change in vivo at 1.875 mg/kg [3]: -4% | change in vivo at 1.875 mg/kg [4]: 91% | ED50 [5]: 0.35 mg/kg

OC(CSc1ncnc2[nH]cnc12)CN1CCN(C(c2ccccc2)c2ccccc2)CC1 (stereo not shown) [Example 4, 6-[2-Hydroxy-3-(1-(diphenylmethyl)piperazin-4-yl)propan-1-yl]triopurine Hemihydrate]
change in vivo at 1.875 mg/kg [1]: 86% | change in vivo at 1.875 mg/kg [2]: -1% | change in vivo at 1.875 mg/kg [3]: -12% | change in vivo at 1.875 mg/kg [4]: 60%

OC(CSc1ncnc2[nH]cnc12)CN1CCN(Cc2ccccc2)CC1 (stereo not shown) [Example 5, 6-[1-[1-(Benzyl)piperazin-4-l]-2-hydroxy-3-propanylthio]purine Monomalonate.cndot.5/2 Hydrate]
change in vivo at 1.875 mg/kg [1]: 43% | change in vivo at 1.875 mg/kg [2]: 5% | change in vivo at 1.875 mg/kg [3]: -3% | change in vivo at 1.875 mg/kg [4]: 58%

OC(CSc1ncnc2[nH]cnc12)CN1CCN(Cc2ccc3c(c2)OCO3)CC1 (stereo not shown) [Example 6, 6-[3-[4-(1,3-Benzodioxol-5-yl)methyl]piperazin-1-yl]-2-hydroxyprop-1-ylthio]purine Sesquihydrate]
change in vivo at 1.875 mg/kg [1]: 79% | change in vivo at 1.875 mg/kg [2]: 15% | change in vivo at 1.875 mg/kg [3]: 4% | change in vivo at 1.875 mg/kg [4]: 80%

OC(CSc1ncnc2[nH]cnc12)CN1CCN(C(c2ccccc2)c2ccc(Cl)cc2)CC1 (stereo not shown) [Example 7, 6-[1-[1-(4-Chlorobenzhydryl)]piperazin-4-yl]-2-hydroxy-3-propanylthio]purine Monohydrate]
change in vivo at 1.875 mg/kg [1]: 97% | change in vivo at 1.875 mg/kg [2]: 0% | change in vivo at 1.875 mg/kg [3]: 1% | change in vivo at 1.875 mg/kg [4]: 75%

OC(CSc1ncnc2[nH]cnc12)CN1CCN(C(c2ccc(C(F)(F)F)cc2)c2cccc(C(F)(F)F)c2)CC1 (stereo not shown) [Example 10, 6-[1-[1-(3,4'[Bis(trifluoromethylphenyl)methyl])piperazin-4-yl]-2-hydroxy-3-propanylthio]purine]
change in vivo at 1.875 mg/kg [1]: 71% | change in vivo at 1.875 mg/kg [2]: 0% | change in vivo at 1.875 mg/kg [3]: 5% | change in vivo at 1.875 mg/kg [4]: 47%

CC(=O)OC(CSc1ncnc2[nH]cnc12)CN1CCN(C(c2ccc(F)cc2)c2ccc(F)cc2)CC1 (stereo not shown) [Example 11, 6-[1-[1-[Bis(4-fluorophenyl)methyl]piperazin-4-yl]-2-acetoxy-3-propanylthio]purine 3/4 Hydrate]
change in vivo at 1.875 mg/kg [1]: 145% | change in vivo at 1.875 mg/kg [2]: -4% | change in vivo at 1.875 mg/kg [3]: -12% | change in vivo at 1.875 mg/kg [4]: 62% | ED50: 0.45 mg/kg

Fc1ccc(C(c2ccc(F)cc2)N2CCN(CCCSc3ncnc4nc[nH]c34)CC2)cc1 [Example 14, 6-[1-[1-[Bis(4-fluorophenyl)methyl]piperazin-4-yl]-3-propanylthio]purine]
change in vivo at 1.875 mg/kg [1]: 38% | change in vivo at 1.875 mg/kg [2]: 2% | change in vivo at 1.875 mg/kg [3]: -6% | change in vivo at 1.875 mg/kg [4]: 17%

OC(CSc1ncnc2[nH]cnc12)CN1CCC(=C(c2ccc(F)cc2)c2ccc(F)cc2)CC1 (stereo not shown) [Example 15, 6-[1-[4-[Bis(4'-fluorophenyl)methylene]-1-piperidinyl]-2-hydroxy-3-propanylthio]purine Hemihydrate]
change in vivo at 1.875 mg/kg [1]: 87% | change in vivo at 1.875 mg/kg [2]: -7% | change in vivo at 1.875 mg/kg [3]: -14% | change in vivo at 1.875 mg/kg [4]: 28% | ED50: 0.725 mg/kg

OC(CSc1ncnc2[nH]cnc12)CN1CCN(C(c2ccc(Cl)cc2)c2ccc(Cl)cc2)CC1 (stereo not shown) [Example 16, 6-[1-[1-[Bis(4-chlorophenyl)methyl]piperazin-4-yl]-2 hydroxy-3-propanylthio]purine.cndot.5/4 Hydrate]
change in vivo at 1.875 mg/kg [1]: 151% | change in vivo at 1.875 mg/kg [2]: -4% | change in vivo at 1.875 mg/kg [3]: 9% | change in vivo at 1.875 mg/kg [4]: 99% | ED50: 0.608 mg/kg

OC(COc1ncnc2c1ncn2C1CCCCO1)CN1CCN(C(c2ccc(F)cc2)c2ccc(F)cc2)CC1 (stereo not shown) [Example 17]
change in vivo at 1.875 mg/kg [1]: 37% | change in vivo at 1.875 mg/kg [2]: 0% | change in vivo at 1.875 mg/kg [3]: -13% | change in vivo at 1.875 mg/kg [4]: 16%

OC(COc1ncnc2[nH]cnc12)CN1CCN(C(c2ccc(F)cc2)c2ccc(F)cc2)CC1 (stereo not shown) [Example 18, 6-[3-[4-Bis(4-fluorophenyl)methyl]piperazin-1-yl-2-hydroxy]propoxypurine]
change in vivo at 1.875 mg/kg [1]: 80% | change in vivo at 1.875 mg/kg [2]: 12% | change in vivo at 1.875 mg/kg [3]: 4% | change in vivo at 1.875 mg/kg [4]: 58% | ED50: 0.825 mg/kg

OC(COc1ncnc2c1ncn2C1CCCCO1)CN1CCN(C(c2ccccc2)c2ccccc2)CC1 (stereo not shown) [Example 19]
change in vivo at 1.875 mg/kg [1]: 43% | change in vivo at 1.875 mg/kg [2]: 3% | change in vivo at 1.875 mg/kg [3]: 2% | change in vivo at 1.875 mg/kg [4]: 19%

OC(COc1ncnc2nc[nH]c12)CN1CCN(C(c2ccccc2)c2ccccc2)CC1 (stereo not shown) [Example 20, 6-[3-[4-(Diphenylmethyl)piperazin-1-yl]-2-hydroxypropoxy]-purine]
change in vivo at 1.875 mg/kg [1]: 66% | change in vivo at 1.875 mg/kg [2]: 2% | change in vivo at 1.875 mg/kg [3]: 4% | change in vivo at 1.875 mg/kg [4]: 36%

OC(CSc1ncnc2[nH]cnc12)CN1CCN(C(c2cccc(C(F)(F)F)c2)c2cccc(C(F)(F)F)c2)CC1 (stereo not shown) [Example 23, 6-[1-[1-[Bis(3-trifluoromethylphenyl)methyl]piperazin-4-yl]-2-hydroxy-3-propanylthio]purine Hemihydrate]
change in vivo at 1.875 mg/kg [6]: 44% | change in vivo at 1.875 mg/kg [7]: -7% | change in vivo at 1.875 mg/kg [8]: 7% | change in vivo at 1.875 mg/kg [9]: 30%

OC(CSc1ncnc2[nH]c(-c3ccccc3)nc12)CN1CCN(C(c2ccc(F)cc2)c2ccc(F)cc2)CC1 (stereo not shown) [Example 24, 6-[1-[1-[Bis(4-fluorophenyl)methyl]piperazin-4-yl]-2-hydroxy-3-propanylthio]-8-phenylpurine.cndot.1/3Hydrate]
change in vivo at 1.875 mg/kg [6]: 12% | change in vivo at 1.875 mg/kg [7]: 4% | change in vivo at 1.875 mg/kg [8]: -3% | change in vivo at 1.875 mg/kg [9]: 5%

Nc1nc(SCC(O)CN2CCN(C(c3ccc(F)cc3)c3ccc(F)cc3)CC2)c2nc[nH]c2n1 (stereo not shown) [Example 25, 2-Amino-6-[1-[1-bis(4-fluorophenyl)methyl]piperazin-4-yl]-2-hydroxy-3-propanyl-thio]purine Hemihydrate]
change in vivo at 1.875 mg/kg [6]: 84% | change in vivo at 1.875 mg/kg [7]: 9% | change in vivo at 1.875 mg/kg [8]: -15% | change in vivo at 1.875 mg/kg [9]: 23%

COC(=O)CCn1cnc2c(SCC(CN3CCN(C(c4ccc(F)cc4)c4ccc(F)cc4)CC3)OC(C)=O)ncnc21 (stereo not shown) [Example 26, 6-[1-[1-[Bis(4-fluorophenyl)methyl]piperazin-4-yl-]-2-acetoxy-3-propanylthio]purin-9-yl-3-propanoic acid, methyl ester]
change in vivo at 1.875 mg/kg [6]: 34% | change in vivo at 1.875 mg/kg [7]: -3% | change in vivo at 1.875 mg/kg [8]: -10% | change in vivo at 1.875 mg/kg [9]: 29%

CCN(CC(O)CN1CCN(C(c2ccc(F)cc2)c2ccc(F)cc2)CC1)c1ncnc2nc[nH]c12 (stereo not shown) [Example 27, 6-[3-[4-[Bis(4-fluorophenyl)methyl]piperazin-1-yl]-2-hydroxypropyl-N-ethylamino]purine]
change in vivo at 1.875 mg/kg [6]: 10% | change in vivo at 1.875 mg/kg [7]: 6% | change in vivo at 1.875 mg/kg [8]: 3% | change in vivo at 1.875 mg/kg [9]: 14%
